Data as given in patent publication US10787451B2, “Crystalline form of GnRH receptor antagonist and preparation method therefor” (Jiangsu Hengrui Medicine Co., Ltd., priority 2016, dated 2020).
Entries after “also recorded” stand apart in the source; their conditions may differ.

Tests used:
[1] = Special stability study of crystal form I (grinding, heating, tableting; XRPD and DSC); type: physicochemical
Description: 1. Differential Scanning Calorimeter, DSC
Instrument type: Mettler Toledo DSC 1 STAR^e System
Heating rate: 10.0° C./min
Temperature range: 40-300° C.
2. X-Ray Powder Diffraction, XRPD
Instrument type: Bruker D8 Focus X-ray powder diffractometer
Ray: monochromatic Cu-Kα ray (λ=1.5406)
Scanning mode: θ/2θ, Scanning range: 2-40°
Voltage: 40 kV, Electric current: 40 mA
The sample of crystal form I of the compound of formula (I) prepared according to the method of Example 1 was ground, heated and tableted.

[2] = Stability test of crystal forms spread flat in the air under lighting, heating and high humidity (HPLC purity, XRPD); type: physicochemical; details: for purity as detected by HPLC, 40° C.: heating 40° C.; for purity as detected by HPLC, 40° C. / purity as detected by HPLC, 60° C. / purity as detected by HPLC, RH 75% / purity as detected by HPLC, RH 90% / purity as detected by HPLC, Lighting: spread flat in the air; for purity as detected by HPLC, 60° C.: heating 60° C.; for purity as detected by HPLC, RH 75%: high humidity RH 75%; for purity as detected by HPLC, RH 90%: high humidity RH 90%; for purity as detected by HPLC, Lighting: lighting (4500 Lux)
Description: The product sample of crystal form I prepared in Example 1 and the product samples of crystal forms A, B, C and D prepared in Examples 12, 13, 14 and 15 were spread flat in the air to test sample stability under conditions of lighting (4500 Lux), heating (40° C., 60° C.), and high humidity (RH 75%, RH 90%). Samplings were carried out on Day 5 and Day 10.

SMILES	purity as detected by HPLC, 40° C. ([2]; Day 0) [%]	purity as detected by HPLC, 40° C. ([2]; Day 5) [%]	purity as detected by HPLC, 40° C. ([2]; Day 10) [%]	purity as detected by HPLC, 60° C. ([2]; Day 0) [%]	purity as detected by HPLC, 60° C. ([2]; Day 5) [%]	purity as detected by HPLC, 60° C. ([2]; Day 10) [%]	purity as detected by HPLC, RH 75% ([2]; Day 0) [%]	purity as detected by HPLC, RH 75% ([2]; Day 5) [%]	purity as detected by HPLC, RH 75% ([2]; Day 10) [%]	purity as detected by HPLC, RH 90% ([2]; Day 0) [%]	purity as detected by HPLC, RH 90% ([2]; Day 5) [%]	purity as detected by HPLC, RH 90% ([2]; Day 10) [%]	purity as detected by HPLC, Lighting ([2]; Day 0) [%]	purity as detected by HPLC, Lighting ([2]; Day 5) [%]	purity as detected by HPLC, Lighting ([2]; Day 10) [%]	further results
CONC(=O)Nc1ccc(-n2nc3c(c2CN(C)C)c(=O)n(-c2ccc(OC)nn2)c(=O)n3Cc2c(F)cccc2F)cc1 [Crystal form I, 1-(4-(7-(2,6-difluorobenzyl)-3-((dimethylamino)methyl)-5-(6-methoxypyridazin-3-yl)-4,6-dioxo-4,5,6,7-tetrahydro-2H-pyrazolo[3,4-d]pyrimidin-2-yl)phenyl)-3-methoxyurea]	99.36	99.33	99.41	99.36	99.24	99.30	99.36	99.22	99.31	99.36	99.27	99.27	99.36	99.26	99.20	DSC peak ([1]; after grinding treatment for 10 minutes): 166.16 °C; DSC peak ([1]; after heating treatment for 3 hours at 80° C.): 168.36 °C; DSC peak ([1]; after tableting treatment): 168.97 °C; crystal form during grinding, heating and tableting procedure ([1]; grinding, heating and tableting): not changed; crystal form by XRPD test after exposure ([2]; lighting, high humidity and high temperature, spread in the air): not changed; also recorded: unchanged; stability compared with crystal forms A, B, C and D ([2]; lighting, high humidity and high temperature, decrease of HPLC purity): significantly better
CONC(=O)Nc1ccc(-n2nc3c(c2CN(C)C)c(=O)n(-c2ccc(OC)nn2)c(=O)n3Cc2c(F)cccc2F)cc1 [Crystal form A, 1-(4-(7-(2,6-Difluorobenzyl)-3-((dimethylamino)methyl)-5-(6-methoxypyridazin-3-yl)-4,6-dioxo-4,5,6,7-tetrahydro-2H-pyrazolo[3,4-d]pyrimidin-2-yl)phenyl)-3-methoxy urea]	97.86	97.50	97.52	97.86	97.62	97.50	97.86	97.61	97.65	97.86	97.59	97.79	97.86	97.27	97.13	–
CONC(=O)Nc1ccc(-n2nc3c(c2CN(C)C)c(=O)n(-c2ccc(OC)nn2)c(=O)n3Cc2c(F)cccc2F)cc1 [Crystal form D, 1-(4-(7-(2,6-Difluorobenzyl)-3-((dimethylamino)methyl)-5-(6-methoxypyridazin-3-yl)-4,6-dioxo-4,5,6,7-tetrahydro-2H-pyrazolo[3,4-d]pyrimidin-2-yl)phenyl)-3-methoxy urea]	99.67	99.44	99.31	99.67	99.48	99.40	99.67	99.57	99.34	99.67	99.57	99.39	99.67	99.43	99.22	–
CONC(=O)Nc1ccc(-n2nc3c(c2CN(C)C)c(=O)n(-c2ccc(OC)nn2)c(=O)n3Cc2c(F)cccc2F)cc1 [Crystal form B, 1-(4-(7-(2,6-Difluorobenzyl)-3-((dimethylamino)methyl)-5-(6-methoxypyridazin-3-yl)-4,6-dioxo-4,5,6,7-tetrahydro-2H-pyrazolo[3,4-d]pyrimidin-2-yl)phenyl)-3-methoxy urea]	99.69	99.45	99.03	99.69	99.45	99.34	99.69	99.52	99.34	99.69	99.47	99.34	99.69	99.39	99.19	–
CONC(=O)Nc1ccc(-n2nc3c(c2CN(C)C)c(=O)n(-c2ccc(OC)nn2)c(=O)n3Cc2c(F)cccc2F)cc1 [Crystal form C, 1-(4-(7-(2,6-Difluorobenzyl)-3-((dimethylamino)methyl)-5-(6-methoxypyridazin-3-yl)-4,6-dioxo-4,5,6,7-tetrahydro-2H-pyrazolo[3,4-d]pyrimidin-2-yl)phenyl)-3-methoxy urea]	99.75	99.57	99.35	99.75	99.53	99.47	99.75	99.51	99.48	99.75	99.54	99.38	99.75	98.30	96.83	–
